Experimental data reported in article PMC10787407, “Regulation of polysaccharide in Wu‐tou decoction on intestinal microflora and pharmacokinetics of small molecular compounds in AIA rats” (Chinese Medicine, 2024).
Like-named read-outs stand apart in the source and are kept apart here.

Legend:
[1] = PK study of SM components in plasma of AIA rats by UPLC-MS/MS (MG vs MPS group); conditions: for Absorption under the intervention of PS: MPS vs MG group
Procedure: (§1) In the PK study, 12 SD rats were divided into model group (MG group) and model + polysaccharide group (MPS group). Rats in the MPS group were given PS (9.8 g crude drug/kg/day) by oral administration, while rats in the MG group received the same amount of saline. After continuous administration for 21 days, rats in both groups were given SM (39.2 g crude drug/kg/day), and two groups of rats were subjected to a PK study.
(§2) The supernatant was collected and dried with N2, redissolved with 100 μL methanol, and centrifuged again after 10 min centrifugation at 4 °C, 13000 rpm. Then the supernatant was collected for UPLC-MS /MS analysis.
(§3) The Shimadzu UPLC-MS/MS system was used for the PK study. […] The multiple reaction monitoring (MRM) mode was used both in positive and negative mode. The MS parameters were as follows: flow rate of heating gas 10 L/min, flow rate of drying gas 10 L/min, flow rate of atomizing gas 3 L/min, interfacial temperature 300 ℃, DL temperature 250 ℃.
(§4) Separation was performed using a Waters ACQUITY UPLC BEH C18 column (2.1 mm × 100 mm, 1.7 μm). The mobile phase was 0.1% formic acid water (v/v) (A) and acetonitrile (B).

in vivo = conditions: Sprague-Dawley, rat, po, 39.2 g/kg/day; for Cmax: C max; for Tmax: T max
Procedure: as §1, §2, §3, §4

[2] = rat, in vivo
Procedure: as §1, §2, §3, §4

[3] = MPS group compared with the MG group, AIA rats
[4] = MG group: AIA rats, saline 21 days, then oral SM 39.2 g crude drug/kg, plasma, mean ± SEM
[5] = MPS group: AIA rats, oral PS 9.8 g crude drug/kg/day 21 days, then oral SM 39.2 g crude drug/kg, plasma, mean ± SEM
[6] = t 1/2, MG group: AIA rats, saline 21 days, then oral SM 39.2 g crude drug/kg, plasma, mean ± SEM
[7] = t 1/2, MPS group: AIA rats, oral PS 9.8 g crude drug/kg/day 21 days, then oral SM 39.2 g crude drug/kg, plasma, mean ± SEM
[8] = Sprague-Dawley, po, 39.2 g/kg/day

Structure (SMILES)	Absorption under the intervention of PS ([1]; AIA rats)	AUC 0-t (in vivo; [4]) [ng·h/mL]	AUC 0-t (in vivo; [5]) [ng·h/mL]	AUC(0-inf) (in vivo; [4]) [ng·h/mL]	AUC(0-inf) (in vivo; [5]) [ng·h/mL]	Cmax (in vivo; [4]) [ng/mL]	Cmax (in vivo; [5]) [ng/mL]	Tmax (in vivo; [4]) [h]	Tmax (in vivo; [5]) [h]	half-life (in vivo; [6]) [h]	half-life (in vivo; [7]) [h]	further results
C[C@@]12C[C@@]3(O)O[C@@H](O1)[C@]1(COC(=O)c4ccccc4)[C@H]3C[C@@]12O[C@@H]1O[C@H](COC(=O)c2ccccc2)[C@@H](O)[C@H](O)[C@H]1O [Benzoylpaeoniflorin]	increased	27.9 ± 5.4	31.6 ± 6.74	30.6 ± 6.08	37.9 ± 9.82	14.8 ± 2.66	24.3 ± 4	0.139 ± 0.079	0.083 ± 0.001	3.59 ± 0.489	6.96 ± 2.27	Change of C max after oral PS [1, 3]: significantly increased
COc1ccc(-c2coc3cc(O)ccc3c2=O)cc1O [Calycosin]		12.3 ± 1.06	12.4 ± 0.972	14.3 ± 1.19	13.6 ± 0.642	8.48 ± 2.43	6.61 ± 1.44	0.083 ± 0.001	0.083 ± 0.001	4.94 ± 0.315	3.53 ± 0.666	
O=C(/C=C/c1ccc(O[C@@H]2O[C@H](CO)[C@@H](O)[C@H](O)[C@H]2O)cc1)c1ccc(O)cc1O [Isoliquiritin]		23.3 ± 0.956	21.9 ± 1.76	30.8 ± 2.93	33.1 ± 3.19	13.6 ± 1.06	14.2 ± 1.55	0.194 ± 0.079	0.111 ± 0.062	5.85 ± 2.02	7.61 ± 1.85	
O=C1C[C@@H](c2ccc(O[C@@H]3O[C@H](CO)[C@@H](O)[C@H](O)[C@H]3O)cc2)Oc2cc(O)ccc21 [Liquiritin]	increased	300 ± 52.8		307 ± 53.9		126 ± 18.5		0.167 ± 0.083	0.083 ± 0.001	2.09 ± 0.132	3.3 ± 0.429	Change of C max after oral PS [1, 3]: significantly increased; AUC 0-t [1, 5]: 321.663 ± 49.723 ng·h/mL; AUC 0-∞ [1, 5]: 339.781 ± 52.584 ng·h/mL; C max [1, 5]: 190.023 ± 19.153 ng/mL
C=C1[C@H]2C[C@@]3([C@@H]1O)[C@@H](CC2=O)[C@]12[C@@H]4C[C@H]3[C@H]1N(CC)C[C@]4(C)CC[C@@H]2O [Songorine]												AUC 0-t (in vivo): 60.2 ± 6.5 ng·h/mL; AUC(0-inf) (in vivo): 64.6 ± 6.04 ng·h/mL; Cmax (in vivo): 14 ± 2.32 ng/mL; Tmax (in vivo): 0.667 ± 0.236 h; half-life (in vivo; t 1/2): 2.64 ± 0.461 h; AUC 0-t [2, 8]: 80.730 ± 5.544 ng·h/mL; AUC 0-∞ [2, 8]: 84.255 ± 5.364 ng·h/mL; C max [2, 8]: 17.665 ± 1.910 ng/mL; T max [2, 8]: 0.917 ± 0.773 h; t 1/2 [2, 8]: 2.522 ± 0.269 h; Absorption under the intervention of PS [2]: increased; Change of AUC 0-t after oral PS ([2]; po): increased; Change of AUC 0-∞ after oral PS ([2]; po): increased
CN[C@@H](C)[C@H](O)c1ccccc1 [Ephedrine]		1720 ± 96.8		1750 ± 93.6	1580 ± 228	674 ± 137	662 ± 149		0.333 ± 0.118	1.85 ± 0.273	1.74 ± 0.108	T max [1, 4]: 0.250 ± 0.001 h; AUC 0-t [1, 5]: 1559.029 ± 227.025 ng·h/mL
C[C@@]12C[C@@]3(O)O[C@@H](O1)[C@]1(COC(=O)c4ccccc4)[C@H]3C[C@@]12O[C@@H]1O[C@H](CO)[C@@H](O)[C@H](O)[C@H]1O [Paeoniflorin]	increased	2540 ± 95.9	2870 ± 71.7	2460 ± 223	2900 ± 68.7	1920 ± 225	2060 ± 352	0.438 ± 0.108	0.396 ± 0.18	2.13 ± 0.102	1.99 ± 0.126	Change of AUC 0-t after oral PS [1, 3]: increased; Change of AUC 0-∞ after oral PS [1, 3]: increased
